US10047386B2, “Biomarker for abdominal aortic aneurysm” (THE REGENTS OF THE UNIVERSITY OF CALIFORNIA, priority 2011, dated 2018)
“And” between values parts separate entries of the source, which are not always exact repeats. Equal entries are not always repeated. “Also recorded” adds a separate entry of the source.

Experiments:
Assay type in all cases: in vivo
hph-1 mice [1] = test: AAA formation in Ang II-infused hph-1 mice; details: for AAA total morbidity / incidence rate: Ang II 0.7 mg/kg per day for 14 days, FA 15 mg/kg per day oral where given
Protocol: (§1) The hph-1 mice (originally in CBA background)^19 were backcrossed with C57BL6 mice for >10 generations and genotyped based on a protocol by Khoo et al.^21 Only homozygote hph-1 mice in C57BL6 background were used for experiments. WT and hph-1 male mice at 24 weeks of age were infused with Ang II (0.7 mg/kg per day) using subcutaneously implanted osmotic pumps (Durect Corp). During the 14-day infusion, blood pressure was monitored by telemetry method. Wireless blood pressure probes were implanted into the animals 10 days before the implantation of the osmotic pumps. The catheter of the blood pressure probe was inserted into the left carotid artery, whereas the body of the probe was inserted into the right flank.
(§2) WT and hph-1 mice were started on continuous oral administration of FA (15 mg/kg per day) or tail vein transfection of DHFR expression vector (pcDNA3.1-DHFR)5 in lipid-based reagent from Altogen Biosystems every other day for 14 days, starting 2 days before Ang II infusion. The mice were monitored twice per day during the infusion period of 2 weeks, and aortas were harvested for assessment of AAA formation, endothelial DHFR expression, and eNOS uncoupling activity by day 14. Animals that died suddenly during the infusion period of 14 days were inspected for aneurysm immediately and aortas were freshly harvested for experiments.

WT mice [2] = test: AAA formation in Ang II-infused wild-type mice; details: Ang II 0.7 mg/kg per day, 14 days
Protocol: as §1, §2

apoE null mice = test: AAA formation in Ang II-infused apoE null mice; details: for number of mice with AAA / number of mice with No AAA: Ang II 4 weeks, FA 15 mg/kg/day where given
Protocol: Animals were fed normal chow or customized FA chew (15 mg/kg/day) two days prior to Ang II infusion and throughout the study period of 4 weeks. Of note, 24 out of 26 Ang II infused apoE null mice (92.3%) on normal chow developed AAA (FIG. 11). […] L-NAME sensitive superoxide production, which reflects eNOS uncoupling activity, was also measured.
For this study, apoE null male animals were infused with Ang II for 4 weeks, which has been shown in literature to reliably produce AAA in 90-100% of the animals. One group of animals is fed food mixed with FA. AAA development is monitored using a noninvasive ultrasound technique during the infusion period. At the end of the four weeks, aortas from the animals were harvested and histology or biochemical assays were performed to assess for various markers of AAA and eNOS functional state.
Animals were either given regular chow, or food pellets made in house mixed with FA (15 mg/kg/day). Aorta are carefully dissected and cleaned of connective tissue from the animals after euthanasia. Blood samples (˜0.1 mL) are collected from each animal on a weekly basis and after euthanasia.
The development of AAA is monitored noninvasively via an ultrasound imaging system (Vevo 770, Visualsonics) during the Ang II-infusion period. The abdominal aortas were imaged transversely and identified via Doppler measurements for the presence of a major pulsatile flow. […] Aorta size is later measured offline from images captured. Two measurements per week after Ang II infusion, as well as two measurements before the Ang II infusion (for control) are made. AAA is defined as an enlargement of the abdominal aorta by at least 50%, and later confirmed at the experimental end point. The AAA incidence for this model was also assessed by direct inspection of abdominal aorta at time of harvest, or post-mortem in those died of sudden rupture.

WT mice [3] = test: Mean blood pressure by intracarotid telemetry, WT mice
Protocol: as §1
(§3) Animals were given 1 week to recover from the surgery. After this period, blood pressure was measured for 3 days to obtain a baseline. The osmotic pumps were then implanted on day 10 after surgery. Measurements were made daily from 9:00 AM to 4:00 PM at a 250-Hz sampling rate. Average blood pressure was calculated daily as the average of the entire recording period. The use of animals and experimental procedures were approved by the institutional animal care and usage committee at the University of California Los Angeles. […]

hph-1 mice [4] = test: Mean blood pressure by intracarotid telemetry, hph-1 mice
Protocol: as §1, §3

aortic H4B [5] = test: HPLC determination of aortic H4B content, hph-1 mice; details: for aortic levels of H4B: hph-1 mice, Example 3, n=3 each (vehicle 1.87±0.25)
Protocol: (§4) Animals were given 1 week to recover from the surgery. After this period, blood pressure was measured for 3 days to obtain a baseline. The osmotic pumps were then implanted on day 10 after surgery. Measurements were made daily from 9:00 AM to 4:00 PM at a 250-Hz sampling rate. Average blood pressure was calculated daily as the average of the entire recording period. The use of animals and experimental procedures were approved by the institutional animal care and usage committee at the University of California Los Angeles. Electron spin resonance determination of aortic NO and superoxide production, high-performance liquid chromatography determination of aortic H4B content, and Western blot determination of endothelial DHFR expression were performed as published previously.^1,2,5
(§5) H4B levels are measured using a HPLC system as previously described. Briefly, aorta samples are lysed with trichloroacetic acid and DTT, subjected to acidic or alkalytic oxidation, and H4B and its oxidized species are detected with a fluorescent detector after separation in the HPLC system (Shimadzu).

aortic H4B [6] = test: HPLC determination of aortic H4B, apoE null mice; details: n=6 (vehicle 4.86±0.32)
Protocol: as §5
(§6) Also investigated was whether FA supplementation as used above leads to improved H4B availability both in the circulation and in the vascular tissues. Ang II-infused apoE null or hph-1 mice are treated with diets supplemented with FA, and circulating and aortic H4B contents are determined using HPLC at different time points of 1, 2, 3 and 4 wks. […] It is established that it takes 3-4 weeks for AAA to develop in Ang II-infused apoE null mice, and at these time points, circulating and tissues H4B levels were indeed decreased, but restored by FA treatment (FIGS. 9-10).

plasma H4B [7] = test: HPLC determination of plasma H4B, apoE null mice; details: n=6 each (vehicle 3.31±0.13)
Protocol: as §5
(§7) Blood samples are collected from Ang II-infused apoE null and hph-1 animals. Approximately 0.1 mL of blood is collected from each animal from the tail vein on a weekly basis. HPLC is used to determine the concentration of H4B in the blood samples as outlined above.
as §6

plasma H4B [8] = test: HPLC determination of plasma H4B, hph-1 mice; details: n=3 each (vehicle 1.37±0.05)
Protocol: as §5, §7, §6

hph-1 mice [9] = test: Ultrasound detection of abdominal aorta size, hph-1 mice; details: Ang II infusion, day 0 values 0.37 (Ang II) and 0.39 (FA)
Description: (§8) Animals were anesthetized with isoflurane and placed on a temperature-controlled table, which also measures ECG for heart rate. Isoflurane levels were adjusted throughout the experiment to maintain heart rate between 400 and 500 bpm while keeping the animal sufficiently anesthetized. Hair was removed from the abdomen using a hair removal cream, and preheated ultrasound transmission gel was applied onto the abdomen area. An ultrasound probe (Velvo 770, Visualsonics) was placed on the gel to visualize aorta transversely. The aorta was identified using Doppler measurement for the presence of pulsatile flow. […] Images were recorded and saved onto a PC computer for offline area analysis. Hematoxylin-eosin and Verhoeff-Van Gieson stainings were conducted following standard histological protocols.

WT mice [10] = test: Ultrasound detection of abdominal aorta size, WT mice; details: Ang II infusion, day 0 value 0.53
Description: as §8

eNOS [11] = test: ESR aortic superoxide production with or without L-NAME (eNOS uncoupling), apoE null mice
Protocol: L-NAME sensitive superoxide production, which reflects eNOS uncoupling activity, was also measured.
The functional state of eNOS is assessed in lysed aortic samples by measuring superoxide production in the presence or absence of L-NAME using electron spin resonance (ESR, from Bruker). Under normal conditions where eNOS is coupled, the addition of the eNOS inhibitor L-NAME will increase superoxide production, as eNOS is normally producing NO to scavenge superoxide. However, under eNOS uncoupled conditions where eNOS is producing superoxide, the addition of L-NAME will decrease superoxide production. This direction of change in superoxide production will allow for an accurate assessment of eNOS function in the aortas of the animals.

eNOS [12] = test: ESR aortic superoxide production with or without L-NAME (eNOS uncoupling), hph-1 mice; details: Ang II-infused hph-1 mice
Protocol: as §4
(§9) The mice were monitored twice per day during the infusion period of 2 weeks, and aortas were harvested for assessment of AAA formation, endothelial DHFR expression, and eNOS uncoupling activity by day 14. Animals that died suddenly during the infusion period of 14 days were inspected for aneurysm immediately and aortas were freshly harvested for experiments.

eNOS [13] = test: ESR aortic superoxide production with or without L-NAME (eNOS uncoupling), WT mice; details: Ang II-infused WT mice
Protocol: as §4, §9

endothelial DHFR = test: Western blot of endothelial DHFR expression in aortic preparations, hph-1 mice; details: Ang II infusion 14 days
Protocol: as §4
On harvest, whole aorta was cut open longitudinally and then digested with collagenase (0.6 mg/mL) at 37° C. for 20 minutes before gentle removal of endothelial cells with a cotton applicator. The supernatant containing endothelial cells was centrifuged and lysed for Western blot analysis.

hph-1 mice [14] = test: Aortic histology (H&E, VVG, macrophage staining), hph-1 mice; details: for infiltrating macrophages: Ang II-infused mice
Description: as §8
(§10) Formalin-fixed and paraffin-embedded tissue were sectioned at 5 μm. Paraffin was removed by washing with xylene and then rehydrated with descending concentrations of ethanol. Antigen retrieval was performed by immersing the sections in an antigen retrieval buffer ([…] of citric acid, 0.01% Tween 20) at 98.5° C. for 20 minutes. Sections were washed in PBS plus 0.1% triton (PBS-T) and then blocked with 2% normal goat serum in PBS-T at room temperature for 3 hours. Sections were then incubated with primary antibody (Mac-3, BD Pharmingen, 2%, in PBS-T) overnight at 4° C. After washing with PBS-T for 1 hour, sections were incubated with secondary antibody (Alexa fluor 488, 2% in PBS-T) for 2 hours at room temperature in the dark. After washing with PBS-T for 1 hour, sections were dehydrated with ascending grades of ethanol and then xylene. Sections were mounted with Permount medium and pictures taken with a confocal microscope (Leica, SP1 inverted). MMP activity assays were performed as published previously.^22

aortic H4B [15] = test: HPLC determination of aortic H4B content, WT mice; details: Ang II-infused WT mice, FA 15 mg/kg per day
Protocol: as §4, §5

MMP2 [16] = test: MMP activity zymography of aortas, MMP2, hph-1 mice
Protocol: as §10
(§11) An increase in MMP activity is one of the hallmarks of AAA development. Therefore, MMP activity can be measured using a zymography technique described in detail in other studies. Briefly, aortic lysates are loaded to gelatin infused SDS-PAGE gels. After electrophoresis, gelatin in the gel is digested by MMP in the loaded samples by incubating the gel in 37° C. overnight. […]

MMP9 = test: MMP activity zymography of aortas, MMP9, hph-1 mice
Protocol: as §10, §11

MMP2 [17] = test: MMP activity zymography of aortas, MMP2, WT mice
Protocol: as §10, §11

[18] = Ang II-infused hph-1 mice, FA 15 mg/kg per day

Molecule: angiotensin II (DRVYIHPF; Angiotensin-2; UniProt P11859 25-32, looked up) [Ang II, angiotensin II infused by osmotic pump to induce AAA and eNOS uncoupling in mice]
- AAA total morbidity / incidence rate (hph-1 mice [1]; hph-1 mice): 79%
- no-AAA rate (hph-1 mice [1]; hph-1 mice, Ang II 0.7 mg/kg per day, 14 days): 21%
- died or developed AAA (WT mice [2]): none
- number of mice with AAA (apoE null mice): 24
- number of mice with No AAA (apoE null mice): 2
- mean blood pressure (MBP) (WT mice [3]; WT mice, day 6 of Ang II infusion (baseline 101±3)): 140±2 mm Hg
- mean blood pressure (MBP) (hph-1 mice [4]; hph-1 mice, day 6 of Ang II infusion (baseline 112±3)): 140±2 mm Hg
- aortic levels of H4B (aortic H4B [5]): 0.99 ± 0.11 pmol/mg
- aortic H4B levels (aortic H4B [6]): 2.72 ± 0.26 pmol/mg
- plasma H4B (plasma H4B [7]): 1.87 ± 0.11 pmol/mg
- plasma levels of H4B (plasma H4B [8]): 0.92 ± 0.06 pmol/mg
- abdominal aorta cross-sectional area at day 14 (hph-1 mice [9]): 1.96 mm^2
- abdominal aorta cross-sectional area at day 14 (WT mice [10]): 0.66 mm^2
- L-NAME sensitive superoxide production (eNOS uncoupling activity), fold (eNOS [11]; Ang II 4 weeks (baseline 1.17±0.06)): 2.22±0.2 fold
- L-NAME-sensitive superoxide production (eNOS [11]; Ang II 4 weeks, FA 15 mg/kg/day where given): markedly increased
- aortic superoxide production, fold increase (eNOS [11]; Ang II 4 weeks, n=6 each): 2.67±0.15 fold
- eNOS uncoupling / L-NAME-sensitive O2•− production (eNOS [12]): further uncoupled; also recorded: progressive uncoupling
- eNOS uncoupling / L-NAME-sensitive O2•− production (eNOS [13]): remained steady
- endothelial DHFR expression (endothelial DHFR): further reduced
- infiltrating macrophages (hph-1 mice [14]): dramatically upregulated

Molecule: Nc1nc2ncc(CNc3ccc(C(=O)N[C@@H](CCC(=O)O)C(=O)O)cc3)nc2c(=O)[nH]1 [FA, folic acid]
- AAA formation (hph-1 mice [1]; Ang II-infused hph-1 mice, 14 days, oral FA 15 mg/kg per day or DHFR vector tail vein transfection every other day): completely prevented and none
- AAA total morbidity / incidence rate (hph-1 mice [1]; hph-1 mice): 0%
- AAA incidence (apoE null mice; Ang II 1000 ng/kg/min for 4 weeks, FA 15 mg/kg/day in food where given): 16.7% and 17%
- number of mice with AAA (apoE null mice): 4
- number of mice with No AAA (apoE null mice): 20
- effect on Ang II-induced hypertension (WT mice [3]; Ang II-infused WT mice, FA 15 mg/kg per day): highly effective in attenuating
- effect on MBP decline (hph-1 mice [4]; [18]): prevented the decline
- aortic H4B levels (aortic H4B [5]; [18]): even higher than baseline
- aortic levels of H4B (aortic H4B [5]): 3.00 ± 0.64 pmol/mg
- aortic H4B levels (aortic H4B [15]): even higher than baseline
- aortic H4B levels (aortic H4B [6]): 6.60 ± 0.62 pmol/mg
- plasma H4B (plasma H4B [7]): 5.80 ± 0.30 pmol/mg
- plasma levels of H4B (plasma H4B [8]): 2.36 ± 0.25 pmol/mg
- abdominal aorta cross-sectional area at day 14 (hph-1 mice [9]): 0.52 mm^2
- endothelial DHFR expression (endothelial DHFR): restored
- medial degradation and adventitial inflammatory cell recruitment, H&E staining (hph-1 mice [14]; Ang II-infused hph-1 mice): abrogated
- medial elastin flattening and rarefaction of elastin fibers, VVG staining (hph-1 mice [14]; Ang II-infused hph-1 mice): attenuated
- infiltrating macrophages (hph-1 mice [14]): completely attenuated
- Ang II-induced MMP2 activation (MMP2 [16]): attenuated
- Ang II-induced MMP9 activation (MMP9): attenuated
- Ang II-induced MMP2 activation (MMP2 [17]): inhibited
